Values after ≈ are worked out from the molar mass of the structure shown. Marks after values point to notes of the source that are not given here. Residues, ends and D or L forms follow the SMILES beside them. No end group written: not given here.
How the values were obtained:
Assay type in all cases: cell-based
[1] = tested on: Pseudomonas aeruginosa H085180216; assay: MIC by broth microdilution; conditions: Muller Hinton broth, turbidity A600 nm
Description: (§1) The bacterial isolates used in this study (Escherichia coli JM109, Staphylococcus aureus SH1000 and Pseudomonas aeruginosa H085180216) were obtained from the culture collection held at Sheffield Hallam University.
(§2) All antimicrobial assays were performed by a broth microdilution method in Muller Hinton (MH) broth using a CLARIOstar plate reader (BMG Labtech, Offenburg, Germany) to determine the minimum inhibitory concentration (MIC). The MIC was defined as the lowest concentration of antimicrobial peptide at which growth was inhibited when viewed as turbidity (A600 nm) against a negative broth control. To determine the minimum bactericidal concentration (MBC), 5 µL aliquots were taken from the wells of the MIC plate and spot-plated onto MH agar in triplicate. The plates were incubated for 18–24 h at 37 °C.

[2] = tested on: Staphylococcus aureus SH1000; assay: MIC by broth microdilution; conditions: Muller Hinton broth, turbidity A600 nm
Description: as §1, §2

[3] = tested on: Escherichia coli JM109; assay: MIC by broth microdilution; conditions: Muller Hinton broth, turbidity A600 nm
Description: as §1, §2

[4] = tested on: sheep erythrocytes; assay: Haemolysis assay; conditions: peptides 0–512 µg/mL, triplicate, 10% Triton X-100 positive control
Description: Haemolytic activity was determined on sheep erythrocytes as described by Corzo, 2001 [23]. All samples were tested in triplicate and results given as HC50 values. Peptides were examined in the range of 0–512 µg/mL. 10% Triton X-100 was used as a positive control and deionised water with PBS as a negative control.

[5] = tested on: Pseudomonas aeruginosa H085180216; assay: MBC by spot-plating from MIC plate; conditions: 5 µL aliquots of MIC plate spot-plated onto MH agar in triplicate, 18–24 h at 37 °C
Description: as §1, §2

[6] = tested on: Staphylococcus aureus SH1000; assay: MBC by spot-plating from MIC plate; conditions: 5 µL aliquots of MIC plate spot-plated onto MH agar in triplicate, 18–24 h at 37 °C
Description: as §1, §2

[7] = tested on: Escherichia coli JM109; assay: MBC by spot-plating from MIC plate; conditions: 5 µL aliquots of MIC plate spot-plated onto MH agar in triplicate, 18–24 h at 37 °C
Description: as §1, §2

[8] = tested on: HEK293 cells; assay: LDH cytotoxicity assay; conditions: LDH release, human kidney HEK293 cells, 0–512 µg/mL, 24 h, 37 °C, triplicate on 2 separate occasions
Description: (§3) An LDH assay (Fisher, Loughborough, UK) was used to determine the cytotoxic potential of the peptides against liver (HepG2) and kidney (HEK293) cells. Cells were grown in accordance with the manufacturer’s protocols. Cells were grown in DMEM containing 1 g/L D-glucose, 10% foetal bovine serum and 1% penicillin-streptomycin. Cells were grown to 80% confluence (37 °C, 5% CO2), washed twice with PBS, trypsinised, re-suspended and seeded at a density of […] in a 96-well plate. Cells were incubated for 24 h, and peptides or lipopeptide antibiotics (0–512 µg/mL) were added and incubated at 37 °C, 5% CO2 for 24 h. LDH release was determined via the manufacturer’s methods. All assays were performed in triplicate on 2 separate occasions. Triton X-100 (10%) was used as a positive control and deionised water as a negative control. Absorbance was read at 490 nm and 680 nm on a plate reader (CLARIOstar). LD50 values were calculated by plotting a dose–response curve and determining the dosage that would cause 50% cell death.

[9] = tested on: HepG2 cells; assay: LDH cytotoxicity assay; conditions: LDH release, human liver HepG2 cells, 0–512 µg/mL, 24 h, 37 °C, triplicate on 2 separate occasions
Description: as §3

Compound | MIC P. aeruginosa [1] [µg/mL] | MIC S. aureus [2] [µg/mL] | MIC E. coli [3] [µg/mL] | HC50 [4] | HC50 ([4]; listed as daptomycin) [µg/mL] | MBC P. aeruginosa [5] [µg/mL] | MBC S. aureus [6] [µg/mL] | MBC E. coli [7] [µg/mL] | LD50 HEK293 [8] [µg/mL] | LD50 HepG2 [9] | HC50 ([4]; listed as polymyxin B) [µg/mL] | HC50 ([4]; listed as W2A) [µg/mL] | HC50 ([4]; listed as F4A) [µg/mL] | HC50 ([4]; listed as K7F) [µg/mL]
CCCCCCCCCC(=O)N[C@@H](Cc1c[nH]c2ccccc12)C(=O)N[C@H](CC(N)=O)C(=O)N[C@@H](CC(=O)O)C(=O)N[C@@H]1C(=O)NCC(=O)N[C@@H](CCCN)C(=O)N[C@@H](CC(=O)O)C(=O)N[C@H](C)C(=O)N[C@@H](CC(=O)O)C(=O)NCC(=O)N[C@H](CO)C(=O)N[C@@H]([C@H](C)CC(=O)O)C(=O)N[C@@H](CC(=O)c2ccccc2N)C(=O)O[C@@H]1C [Daptomycin] | >512 | 4 (≈ 2.47 µM) | >512 | >512 µg/mL | ≥ 512 | >512 | 8 (≈ 4.94 µM) | >512 | >512 | >512 µg/mL | – | – | – | –
CC[C@H](C)CCCCC(=O)N[C@@H](CCN)C(=O)N[C@H](C(=O)N[C@@H](CCN)C(=O)N[C@H]1CCNC(=O)[C@H]([C@@H](C)O)NC(=O)[C@H](CCN)NC(=O)[C@H](CCN)NC(=O)[C@H](CC(C)C)NC(=O)[C@@H](Cc2ccccc2)NC(=O)[C@H](CCN)NC1=O)[C@@H](C)O [Polymyxin B] (HELM PEPTIDE1{[CC[C@H](C)CCCCC(=O)[*:2]].[Dab].T.[Dab].[Dab].[Dab].[dF].L.[Dab].[Dab].T}$PEPTIDE1,PEPTIDE1,5:R3-11:R2$$$V2.0; N-terminus assumed; bridges inferred) | 2 (≈ 1.66 µM) | 32 (≈ 26.6 µM) | 2 (≈ 1.66 µM) | >512 µg/mL | – | 8 (≈ 6.65 µM) | 64 (≈ 53.2 µM) | 4 (≈ 3.32 µM) | 351 | >512 µg/mL | ≥ 512 | – | – | –
IASFLIKAATKLLPSLFGGGKKDS [Smp24 W2A] | – | – | – | – | – | – | – | – | – | – | – | > 512 | – | –
IWSALIKAATKLLPSLFGGGKKDS [Smp24 F4A] | – | – | – | – | – | – | – | – | – | – | – | – | 423 | –
IWSFLIFAATKLLPSLFGGGKKDS [Smp24 K7F] | – | – | – | – | – | – | – | – | – | – | – | – | – | 442
IWSFLIKAATKLLPSLFGGGKKFS [Smp24 D23F] | 64 | 32 | 32 | 33 * μg/mL | – | 64 | 32 | 32 | 38 | >512 * μg/mL | – | – | – | –
